Data published in PubChem BioAssay AID1902 (Broad Institute, 2009).
Calls of active or inactive are those of the source.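 The calls were made as follows: active = EC50 no more than a set limit of log units above the highest dose; inactive = the rest.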

Molecular target: S. pyogenes SKKanGAS, kanamycin survival, BacTiterGlo, 6 h
Test: S. pyogenes SKKanGAS kanamycin growth inhibitors – SKKanGAS strain, luminescence, dose confirmation, streptokinase promoter inhibitor project, dose response (AID 1902);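 also: lower survival reflects blocked streptokinase promoter driving kanamycin resistance gene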

Structure (SMILES) | EC50
Cc1cc(C)cc(NS(=O)(=O)c2ccc(NC(=S)NC(=O)c3cccs3)cc2)c1 | 6.32 µM
CC(C)C[C@H](NC(=O)c1nc[nH]c1C(=O)N[C@@H](CC(C)C)C(=O)OC(C)(C)C)C(=O)OCc1ccccc1 | 1.45 µM
CCOC(=O)C1CCN(C2=C(NS(=O)(=O)c3ccc(Cl)cc3)C(=O)c3ccccc3C2=O)CC1 | 7.15 µM
COc1ccc(C(=O)OCC(=O)Nc2nnc(-c3ccccc3)o2)cc1 | 6.54 µM
O=S(=O)(Cc1nnnn1-c1ccccc1)c1ccc(F)cc1 | > 15 µM (inactive)
COc1cccc(/C=C/C(=O)OCC(=O)Nc2nnc(-c3ccccc3)o2)c1 | 4.21 µM
CCn1cc(Cl)c(C(=O)N2N=C(c3ccc4ccccc4c3)CC2c2ccccc2O)n1 (configuration not stated) | 6.13 µM
N#Cc1ccc(NC(=O)Nc2ccc(Cl)cc2)cc1 | 6.03 µM
CC[n+]1c(/C=C/N(C)c2ccccc2)n(-c2ccccc2)c2ccc(-c3nc4ccccc4s3)cc21 | 3.61 µM
C=CCn1c(O)c(C(CC)=Nc2ccc(N(CC)CC)cc2)c(=O)[nH]c1=O | 1.66 µM
Cc1nnc(-c2ccccc2)c(=O)n1/N=C/c1c(O)ccc2ccccc12 | 4.37 µM
Cc1ccc(NC(=O)c2nc[nH]c2C(=O)N[C@@H](CCCCNC(=O)OC(C)(C)C)C(=O)OC(C)(C)C)cc1 | 3.76 µM
O=C1C(Nc2ccccc2)=C/C(=N/S(=O)(=O)c2cccs2)c2ccccc21 | 1.33 µM
O=C(COC(=O)c1ccccc1Br)Nc1nnc(-c2ccccc2)o1 | 0.689 µM
CC(C(=O)NC1C(=O)N2C(C(=O)O)=C(CSc3nnnn3C)CSC12)n1cc(Br)cn1 (configuration not stated) | < 0.06 µM
CCc1ccc(S(=O)(=O)/N=C2\C=C(Nc3cccc(C(=O)O)c3)C(=O)c3ccccc32)cc1 | 1.71 µM
N#Cc1c(-c2ccccc2)nc(SCc2ccc(Cl)cc2)[nH]c1=O | 6.47 µM
O=C(CSc1nc(-c2ccc(Cl)cc2)[nH]c(=O)n1)Nc1cccc(Cl)c1 | 2.35 µM
O=C(/C=C/c1cccc(Cl)c1)c1ccc([N+](=O)[O-])o1 | 2.23 µM
CCOC(=O)c1c(NC(=O)c2cccs2)sc2c1CCN(C(=O)OCC)C2 | 13 µM
Cc1cc(C)n(-c2nc(NC(C)(C)C)nc(NC(C)(C)C)n2)n1 | 0.396 µM
COc1cccc(-c2cc(C(=O)NCC3CCCO3)c3cc(Br)cc(C)c3n2)c1 (configuration not stated) | > 15 µM (inactive)

Structure (SMILES) | EC50
C/C(CC(=O)Nc1ccc(Cl)c(C(F)(F)F)c1)=N\NC(=O)c1cc2ccccc2cc1O | 1.58 µM
COc1cc(F)ccc1CN1CCC(n2nccc2NC(=O)C2CCOC2)CC1 (configuration not stated) | > 15 µM (inactive)
CCc1ccc(CNc2ccc3c(c2)ncn3C(C)(C)C)cc1 | 3.3 µM
Fc1cccc2sc(Nc3nnc(-c4ccccc4)o3)nc12 | 0.824 µM
O=C(CC1CCCCC1)c1c(O)c2ccccc2oc1=O | 3.54 µM
Cc1cccc(C(=O)OCC(=O)Nc2nnc(-c3ccccc3)o2)c1O | 2.2 µM
Cc1ccc(-c2nn(CCC(=O)O)cc2/C=C\C(=O)c2ccc(Br)cc2)cc1 | 6.54 µM
CCOP(=O)(Cc1ccc(C(=O)CC)o1)OCC | > 15 µM (inactive)
COc1ccc(O)c(CN2CCC(n3nccc3NC(=O)CCOc3ccccc3)CC2)c1 | > 15 µM (inactive)
O=c1cc(C(F)(F)F)[nH]c2c(C(F)(F)F)cccc12 | 2.34 µM
O=Nc1c2cc(-c3ccccc3)[nH]nc-2c2ccccc12 | 6.43 µM
C=C(C)C1Cc2c(C)nn(-c3cccc4ccccc34)c2C1 (configuration not stated) | 5.89 µM
COCCn1c(SCc2nc3sc(C(=O)OC)c(C)c3c(=O)[nH]2)nc2ccccc21 | 3.54 µM
Cc1n[nH]c(C)c1CCOc1ccc(C(C)C)cc1 | 11.2 µM
Cc1ccc(C)c(/C=N/NC(=S)NCCc2ccccc2)c1 | 4.05 µM
Cc1ccc(/C=N/NC(=O)C2=NNC(c3ccccc3)(c3ccccc3)C2)c(O)c1 | 4.01 µM
O=C(Nc1cccc(C(F)(F)F)c1)Oc1ccc(Cl)c2cccnc12 | 1.94 µM
COc1ccc(CCCC(=O)N/N=C/c2cccc(OC)c2O)cc1C | 1.66 µM
C/C(=N\NC(=O)c1ccccc1O)C1C(=O)c2ccccc2C1=O | 4.69 µM
Cc1nc2c(=O)n(C)c(=O)nc-2n(C)n1 | 2.77 µM
O=C(NC(NC(=S)Nc1ccccc1Cl)C(Cl)(Cl)Cl)c1cccc(Cl)c1 (configuration not stated) | 1.59 µM
COc1cc(OC)cc(C(=O)NC(=S)NNC(=O)Cc2cccs2)c1 | 0.716 µM

Structure (SMILES) | EC50
Cc1nn2c(NCc3ccccn3)cc(C(C)(C)C)nc2c1-c1ccccc1 | 1.54 µM
CCCCC(=O)NC(c1ccco1)c1cc(Cl)c2cccnc2c1O (configuration not stated) | 2.03 µM
COc1ccc(C(=O)NC(=S)NNC(=O)COc2ccccc2)cc1 | 0.666 µM
O=C(COc1ccc([N+](=O)[O-])cc1)Nc1nc(-c2ccccn2)cs1 | 3.68 µM
O=[N+]([O-])c1cc(C(F)(F)F)ccc1NCCNC(=S)Nc1ccc(Cl)cc1 | 4.79 µM
CCCCn1c(-c2ccco2)nc2oc3ccccc3c(=O)c2c1=O | 15.1 µM
COCc1cc(=O)[nH]c(Nc2nc3ccccc3o2)n1 | 2.66 µM
O=S(=O)(Nc1nccs1)c1ccc(Nc2nnc(-c3ccccc3)c3ccccc23)cc1 | 2.51 µM
CC(C)(C)c1ccc(C(=O)N/N=C/c2ccccn2)cc1 | 3.3 µM
COc1cccc(N=Nc2ccc3cccnc3c2O)c1 | < 0.06 µM
C/C(=N\NC(=O)c1cc2ccccc2cc1O)c1cc2ccccc2o1 | 1.47 µM
COc1ccc(/C=C/C(=O)NC(=S)NNC(=O)c2cnccn2)cc1 | 5.92 µM
CCCCCCCCCCCCCCCC(O)C(N)CO (configuration not stated) | 2.2 µM
Cn1nc(-c2ccccc2)c(CSc2cccc(Cl)c2)c1Cl | 1.08 µM
O=C(NC(=S)N1CCN(c2ccc(Cl)cc2[N+](=O)[O-])CC1)c1cccs1 | 2.75 µM
CC(=O)Nc1nc2ccccc2n1CCOc1ccccc1 | 11.3 µM
COc1cccc(-c2nc(NC3CCCC3)c3ccccc3n2)c1O | 5.84 µM
COc1ccc(N=C2NN=C(c3c(C)[nH]c4ccccc34)CS2)cc1 | 7.32 µM
CCC(Oc1ccccc1)C(=O)Nc1ccccc1N1CCCCC1 (configuration not stated) | 3.3 µM
Cc1cc2nc(N3C(=O)CNC3=S)sc2cc1C | 2.21 µM
O=C(COc1ccccc1)NNC(=S)NC(=O)c1ccc(Cl)cc1Cl | 0.361 µM
CCOC(=O)c1cnc(-n2nc(C)cc2C)nc1Nc1ccc(C)cc1 | 0.101 µM

Structure (SMILES) | EC50
O=C(N/N=C/c1cc([N+](=O)[O-])ccc1O)c1cccc(N2CCCC2=O)c1 | 1.21 µM
COc1ccc(C(=O)Nc2cccc(/C=C(\CCC(=O)O)c3nc4ccccc4s3)c2)cc1 | 8.09 µM
Cc1ccccc1-n1nc(C(=O)c2cccs2)cc(-c2nc3ccccc3[nH]2)c1=N | 1.59 µM
CO[C@H]1C=CO[C@@]2(C)Oc3c(C)c(O)c4c(O)c(c(C=NN5CCN(C)CC5)c(O)c4c3C2=O)NC(=O)C(C)=CC=C[C@H](C)[C@H](O)[C@@H](C)[C@@H](O)[C@@H](C)[C@H](OC(C)=O)[C@@H]1C | < 0.06 µM
CC(C(=O)NC1C(=O)N2C(C(=O)O)=C(CSc3nnnn3C)CSC12)n1cc(Cl)cn1 (configuration not stated) | 0.078 µM
CCN(CC(=O)NC(C)(C)C)C(=O)COc1c(Cl)cc(Cl)c2ccc(C)nc12 | 0.499 µM
Cc1cccc(Cn2nc(-n3cccc3)c3c(C)cc(C)nc32)c1 | 6.78 µM
CC(=O)Oc1ccccc1C1=NN(C(=O)/C=C/c2ccccc2)C(c2ccccc2)C1 (configuration not stated) | 5.15 µM
Clc1ccc(-c2n[nH]c3c2CCC3)cc1Cl | 12.6 µM
Oc1ccc(Cl)cc1-c1cc(-c2cccc(Br)c2)n[nH]1 | 3.62 µM
O=c1c2c(n3nnnc3n1Cc1ccccc1)-c1ccccc1CC21CCCC1 | 1.67 µM
C/C(CC(=O)Nc1ccc(Cl)c(C(F)(F)F)c1)=N\NC(=O)c1ccccc1O | 3.98 µM
O=S(=O)(Nc1cccc2ncccc12)c1cccs1 | 2.76 µM
CCCCCCCCCCCCCCCC[N+](C)(C)CC | 2.19 µM
CC(C)(C)c1ccc(C(=O)Nc2ccc(F)cc2)s1 | > 15 µM (inactive)
C=C(C)COc1ccc(-c2nc(N)ncc2Oc2ccc(OC)cc2)c(O)c1 | 6.59 µM
O=C(O)c1ccc(N2C(=O)CC(SC(=NCc3ccc4c(c3)OCO4)Nc3ccc(F)cc3)C2=O)cc1 (configuration not stated) | 8.24 µM
Nc1nc(Nc2ccc(Cl)cc2)nc(NCc2ccco2)c1[N+](=O)[O-] | 6.56 µM
Cc1nc2c(C(=O)NCc3ccc4c(c3)OCO4)cnn2c(C)c1Cc1ccc(F)cc1Cl | 14.7 µM
CCC(CC)NC(=O)c1oc2ccccc2c1COc1ccccc1 | 13 µM
Cc1c(CCOC(=O)C2C3CC4CC(C3)CC2C4)sc[n+]1CC(=O)c1ccc(Br)cc1 (configuration not stated) | 7.28 µM
CC(=O)c1sc(N/N=C\c2c(O)ccc3ccccc23)nc1C | 4.08 µM

Structure (SMILES) | EC50
CSc1ccc(S(=O)(=O)NCC(=O)OCC(=O)N2CCCC2=O)cc1[N+](=O)[O-] | 9.29 µM
O=S(=O)(N[C@H]1C[C@@H](NS(=O)(=O)OCC(Cl)(Cl)Cl)C2CCCCC21)OCC(Cl)(Cl)Cl (some centres not stated) | 1.86 µM
CC(=O)N(CCC(Cc1ccccc1)c1ccc2c(c1)OCO2)Cc1ccc(Cl)cc1 (configuration not stated) | 3.42 µM
CCCOC(=O)c1ccc(Oc2cn[nH]c2-c2ccc(O)cc2O)cc1 | 3.34 µM
C=C[C@]1(C)C[C@@H](OC(=O)CSCCN(CC)CC)[C@]2(C)C(C)CC[C@]3(CCC(=O)[C@H]32)[C@@H](C)[C@@H]1O (some centres not stated) | < 0.06 µM
Oc1cccc2ccc(/C=C/c3ccc(Br)s3)nc12 | 1.38 µM
Brc1ccc(Nc2ncnc3[nH]ncc23)cc1 | 8.45 µM
Cc1ccc(OCC(=O)Nc2nc(-c3ccccn3)cs2)c(C)c1 | 1.99 µM
CCCCCc1ccc(OCCOCCn2c[n+](C)c3ccccc32)c(CCCCC)c1 | 5.79 µM
O=C1CN(/N=C/c2ccc([N+](=O)[O-])o2)C(=O)N1 | 5.83 µM
N/C(=N\NC(=O)c1sccc1OCc1ccc(Cl)cc1Cl)c1ccccn1 | 3.32 µM
COc1ccc2nc(-n3c(O)c(C4=c5ccccc5=NC4=O)[nH]c3=S)sc2c1 | 0.508 µM
Cc1ccccc1-c1nc2c3ccccc3nc(=S)n2[nH]1 | 4.01 µM
COc1ccc(CCNC(=O)CSc2nncn2N)cc1OC | > 15 µM (inactive)
CCCCc1ccc(NC(=O)NCc2ccccn2)cc1 | > 15 µM (inactive)
Cc1ccc2sc(NNC(=O)c3cc(-c4cccs4)nc4ccccc34)nc2c1C | 0.859 µM
CC(C)(C)c1ccc(C(=O)N2CCN(C(=O)c3ccco3)CC2)cc1 | > 15 µM (inactive)
Cc1ccnc(NS(=O)(=O)c2ccc(NC(=O)c3cc(-c4ccc(Br)cc4)nc4ccccc34)cc2)n1 | 3.34 µM
CC(C)C[C@H](NC(=O)c1[nH]cnc1C(=O)N[C@@H](Cc1ccccc1)C(=O)OC(C)(C)C)C(=O)OC(C)(C)C | 2.1 µM
